Experimental data from publication PMC10932281, “A Combination of β-Aescin and Newly Synthesized Alkylamidobetaines as Modern Components Eradicating the Biofilms of Multidrug-Resistant Clinical Strains of Candida glabrata” (International Journal of Molecular Sciences, 2024).
In brackets after ≈: the same amount, converted by molar mass.

Tests used:
Format in all cases: cell-based, Candida glabrata
[1] = test system: C. glabrata 2586; experiment: FICI checkerboard, β-aescin with antifungal drugs; conditions: for FICI: combination with β-aescin
[2] = test system: C. glabrata strains (ATCC 90030, 2586, 2853); experiment: Interaction of AABs with antifungal agents, statements for all tested strains together; conditions: for MF with AABs: all of the tested C. glabrata strains, AABs 3 µM
[3] = test system: C. glabrata 2853; experiment: FICI checkerboard, β-aescin with antifungal drugs; conditions: for FICI: combination with β-aescin
[4] = test system: C. glabrata ATCC 90030; experiment: FICI checkerboard, β-aescin with antifungal drugs; conditions: for FICI: combination with β-aescin
[5] = test system: C. glabrata 2586; experiment: Interaction of AABs (3 µM) with antifungal agents, modified checkerboard; conditions: for Multiplicity factor (MF) with C9: C9 3 µM; for MIC90 of antimycotic combined with C9: C9 at constant 3 µM; for MIC90 of antimycotic combined with C9 / MIC90 of antimycotic combined with C11 / MIC90 of antimycotic combined with C13 / MIC90 of antimycotic combined with C15: dilutions in µg/mL; for Multiplicity factor (MF) with C11: C11 3 µM; for MIC90 of antimycotic combined with C11: C11 at constant 3 µM; for Multiplicity factor (MF) with C13: C13 3 µM; for MIC90 of antimycotic combined with C13: C13 at constant 3 µM; for Multiplicity factor (MF) with C15: C15 3 µM; for MIC90 of antimycotic combined with C15: C15 at constant 3 µM
[6] = test system: C. glabrata 2586 clinical strain; experiment: MIC90/MFC, EUCAST broth microdilution; conditions: Nakaseomyces glabratus; for MFC: read-out: MFC; for MIC90: read-out: MIC90
[7] = test system: C. glabrata ATCC 90030; experiment: Interaction of AABs (3 µM) with antifungal agents, modified checkerboard; conditions: for Multiplicity factor (MF) with C9: C9 3 µM, |MF| = MIC90 alone/MIC90 with AAB; for MIC90 of antimycotic combined with C9: C9 at constant 3 µM; for MIC90 of antimycotic combined with C9 / MIC90 of antimycotic combined with C11 / MIC90 of antimycotic combined with C13 / MIC90 of antimycotic combined with C15: dilutions in µg/mL; for Multiplicity factor (MF) with C11: C11 3 µM; for MIC90 of antimycotic combined with C11: C11 at constant 3 µM; for Multiplicity factor (MF) with C13: C13 3 µM; for MIC90 of antimycotic combined with C13: C13 at constant 3 µM; for Multiplicity factor (MF) with C15: C15 3 µM; for MIC90 of antimycotic combined with C15: C15 at constant 3 µM
[8] = test system: C. glabrata 2853; experiment: as above; conditions: for Multiplicity factor (MF) with C9: C9 3 µM; for MIC90 of antimycotic combined with C9: C9 at constant 3 µM; for MIC90 of antimycotic combined with C9 / MIC90 of antimycotic combined with C11 / MIC90 of antimycotic combined with C13 / MIC90 of antimycotic combined with C15: dilutions in µg/mL; for Multiplicity factor (MF) with C11: C11 3 µM; for MIC90 of antimycotic combined with C11: C11 at constant 3 µM; for Multiplicity factor (MF) with C13: C13 3 µM; for MIC90 of antimycotic combined with C13: C13 at constant 3 µM; for Multiplicity factor (MF) with C15: C15 3 µM; for MIC90 of antimycotic combined with C15: C15 at constant 3 µM
[9] = test system: C. glabrata ATCC 90030; experiment: MIC90/MFC, EUCAST broth microdilution; conditions: Nakaseomyces glabratus, ATCC90030, ATCC 90030; for MFC: read-out: MFC; for MIC90: read-out: MIC90
[10] = test system: C. glabrata 2853 clinical strain; experiment: MIC90/MFC, EUCAST broth microdilution; conditions: Nakaseomyces glabratus; for MFC: read-out: MFC; for MIC90: read-out: MIC90
[11] = test system: C. glabrata strains (ATCC 90030, 2586, 2853); experiment: MIC, statements for all tested strains together; conditions: Nakaseomyces glabratus, ATCC90030

SMILES	FICI [3]	FICI [4]	Multiplicity factor (MF) with C11 [5]	MIC90 of antimycotic combined with C11 [5]	Multiplicity factor (MF) with C13 [5]	MIC90 of antimycotic combined with C13 [5]	Multiplicity factor (MF) with C15 [5]	MFC [6] [µg/mL]	MIC90 [6] [µg/mL]	Multiplicity factor (MF) with C9 [7]	MIC90 of antimycotic combined with C9 [7]	Multiplicity factor (MF) with C11 [7]	MIC90 of antimycotic combined with C11 [7]	Multiplicity factor (MF) with C13 [7]	MIC90 of antimycotic combined with C13 [7]	Multiplicity factor (MF) with C15 [7]	MFC [9] [µg/mL]	MIC90 [9] [µg/mL]	MFC [10] [µg/mL]	MIC90 [10] [µg/mL]	other results
Nc1nc(=O)[nH]cc1F [5-Fluorocytosine]	1.5	1.5	1	512	1	512	1	1020 (≈ 7930 µM)	512 (≈ 3970 µM)	1	512	1	512	1	512	1	1020 (≈ 7930 µM)	512 (≈ 3970 µM)	512 (≈ 3970 µM)	256 (≈ 1980 µM)	FICI [1]: 1.5; MF with AABs [2]: 1; Multiplicity factor (MF) with C9 [5]: 1; MIC90 of antimycotic combined with C9 [5]: 512; MIC90 of antimycotic combined with C15 [5]: 512; MIC90 of antimycotic combined with C15 [7]: 512; Multiplicity factor (MF) with C9 [8]: 1; MIC90 of antimycotic combined with C9 [8]: 256; Multiplicity factor (MF) with C11 [8]: 1; MIC90 of antimycotic combined with C11 [8]: 256; Multiplicity factor (MF) with C13 [8]: 1; MIC90 of antimycotic combined with C13 [8]: 256; Multiplicity factor (MF) with C15 [8]: 1; MIC90 of antimycotic combined with C15 [8]: 256
C[C@@H]1[C@H](O)[C@@H](C)/C=C/C=C/C=C/C=C/C=C/C=C/C=C/[C@H](O[C@@H]2O[C@H](C)[C@@H](O)[C@H](N)[C@@H]2O)C[C@@H]2O[C@](O)(C[C@@H](O)C[C@@H](O)[C@H](O)CC[C@@H](O)C[C@@H](O)CC(=O)O[C@H]1C)C[C@H](O)[C@H]2C(=O)O [Amphotericin B]	2.5	1.5	2	0.12	2	0.12	4	1 (≈ 1.08 µM)	0.25 (≈ 0.271 µM)	1	0.25	2	0.12	2	0.12	4	0.5 (≈ 0.541 µM)	0.25 (≈ 0.271 µM)	0.5 (≈ 0.541 µM)	0.25 (≈ 0.271 µM)	Type of interaction with β-AE (by FICI) [1]: additive; FICI [1]: 1; FICI ([1]; listed as amphotericin B): 1.0; Fold increase of activity with C11 ([2]; all the tested strains, C11 3 µM): 2 fold; Fold increase of activity with C13 ([2]; all the tested strains, C13 3 µM): 2 fold; Fold increase of activity with C15 ([2]; all the tested strains, C15 3 µM): 4 fold; MIC [11]: 0.25 µg/mL (≈ 0.271 µM); Multiplicity factor (MF) with C9 [5]: 2; MIC90 of antimycotic combined with C9 [5]: 0.12; MIC90 of antimycotic combined with C15 [5]: 0.06; MIC90 of antimycotic combined with C15 [7]: 0.06; Multiplicity factor (MF) with C9 [8]: 1; MIC90 of antimycotic combined with C9 [8]: 0.25; Multiplicity factor (MF) with C11 [8]: 2; MIC90 of antimycotic combined with C11 [8]: 0.12; Multiplicity factor (MF) with C13 [8]: 2; MIC90 of antimycotic combined with C13 [8]: 0.12; Multiplicity factor (MF) with C15 [8]: 4; MIC90 of antimycotic combined with C15 [8]: 0.06
CC[C@H](C)C[C@H](C)CCCCCCCCC(=O)N[C@H]1C[C@@H](O)[C@@H](NCCN)NC(=O)[C@@H]2[C@@H](O)CCN2C(=O)[C@H]([C@H](O)CCN)NC(=O)[C@H]([C@H](O)[C@@H](O)c2ccc(O)cc2)NC(=O)[C@@H]2C[C@@H](O)CN2C(=O)[C@H]([C@@H](C)O)NC1=O [Caspofungin]	0.75	0.75						0.06 (≈ 0.0549 µM)	0.03 (≈ 0.0274 µM)	1	0.06	1	0.06	1	0.06		0.06 (≈ 0.0549 µM)	0.06 (≈ 0.0549 µM)	0.06 (≈ 0.0549 µM)	0.03 (≈ 0.0274 µM)	Type of interaction with β-AE (by FICI) [1]: additive; MF with AABs [2]: 1; Type of interaction with β-AE (by FICI) [3]: additive; Type of interaction with β-AE (by FICI) [4]: additive
CC[C@@H]([C@H](C)O)n1ncn(-c2ccc(N3CCN(c4ccc(OC[C@@H]5CO[C@@](Cn6cncn6)(c6ccc(F)cc6F)C5)cc4)CC3)cc2)c1=O [Posaconazole]	0.562	1	2	256	2	256	1	1020 (≈ 1460 µM)	512 (≈ 731 µM)	two-fold		8	32	8	32	two-fold	1020 (≈ 1460 µM)	256 (≈ 365 µM)	256 (≈ 365 µM)	1 (≈ 1.43 µM)	FICI [1]: 1.002; Type of interaction with β-AE (by FICI) [3]: additive; Type of interaction with β-AE (by FICI) [4]: additive; FICI ([4]; listed as posaconazole): 1.0; Multiplicity factor (MF) with C9 [5]: 1; Multiplicity factor (MF) with C9 ([5]; listed as posaconazole): not observed; Multiplicity factor (MF) with C15 ([5]; listed as posaconazole): not observed; Multiplicity factor (MF) with C9 [8]: 8 (8); Multiplicity factor (MF) with C9 ([8]; listed as posaconazole): 8; MIC90 of antimycotic combined with C9 [8]: 8 (8); Multiplicity factor (MF) with C11 [8]: 4 (4); Multiplicity factor (MF) with C11 ([8]; listed as posaconazole): 4; MIC90 of antimycotic combined with C11 [8]: 4 (4); Multiplicity factor (MF) with C13 [8]: 4 (4); Multiplicity factor (MF) with C13 ([8]; listed as posaconazole): 4; MIC90 of antimycotic combined with C13 [8]: 4 (4); Multiplicity factor (MF) with C15 [8]: 256 (256); Multiplicity factor (MF) with C15 ([8]; listed as posaconazole): 256; MIC90 of antimycotic combined with C15 [8]: 256 (256)
C[C@@H](c1ncncc1F)[C@](O)(Cn1cncn1)c1ccc(F)cc1F [Voriconazole]	2.5	1	64	8	64	8	64	1020 (≈ 2930 µM)	512 (≈ 1470 µM)	64	8	64	8	64	8	64	1020 (≈ 2930 µM)	512 (≈ 1470 µM)	512 (≈ 1470 µM)	2 (≈ 5.73 µM)	Type of interaction with β-AE (by FICI) [1]: additive; Type of interaction with β-AE (by FICI) [4]: additive; FICI ([4]; listed as voriconazole): 1.0; MIC90 of antimycotic combined with C9 [5]: 64; MIC90 of antimycotic combined with C15 [5]: 8; MIC90 of antimycotic combined with C15 [7]: 8; Multiplicity factor (MF) with C9 [8]: 1; Multiplicity factor (MF) with C9 ([8]; listed as voriconazole): did not alter the level of activity; MIC90 of antimycotic combined with C9 [8]: 2; Multiplicity factor (MF) with C11 [8]: 2; Multiplicity factor (MF) with C11 ([8]; listed as voriconazole): twice; MIC90 of antimycotic combined with C11 [8]: 1; Multiplicity factor (MF) with C13 [8]: 2; Multiplicity factor (MF) with C13 ([8]; listed as voriconazole): twice; MIC90 of antimycotic combined with C13 [8]: 1; Multiplicity factor (MF) with C15 [8]: 128; MIC90 of antimycotic combined with C15 [8]: 256
